For the assay, the target named is T1, recombinant guanylate cyclase reporter cell line (Rattus norvegicus, UniProt P19686+P20595).
T1 construct: expressed in transfected cells; host or cells: recombinant reporter cell line
T1 sequence (P19686 1-690): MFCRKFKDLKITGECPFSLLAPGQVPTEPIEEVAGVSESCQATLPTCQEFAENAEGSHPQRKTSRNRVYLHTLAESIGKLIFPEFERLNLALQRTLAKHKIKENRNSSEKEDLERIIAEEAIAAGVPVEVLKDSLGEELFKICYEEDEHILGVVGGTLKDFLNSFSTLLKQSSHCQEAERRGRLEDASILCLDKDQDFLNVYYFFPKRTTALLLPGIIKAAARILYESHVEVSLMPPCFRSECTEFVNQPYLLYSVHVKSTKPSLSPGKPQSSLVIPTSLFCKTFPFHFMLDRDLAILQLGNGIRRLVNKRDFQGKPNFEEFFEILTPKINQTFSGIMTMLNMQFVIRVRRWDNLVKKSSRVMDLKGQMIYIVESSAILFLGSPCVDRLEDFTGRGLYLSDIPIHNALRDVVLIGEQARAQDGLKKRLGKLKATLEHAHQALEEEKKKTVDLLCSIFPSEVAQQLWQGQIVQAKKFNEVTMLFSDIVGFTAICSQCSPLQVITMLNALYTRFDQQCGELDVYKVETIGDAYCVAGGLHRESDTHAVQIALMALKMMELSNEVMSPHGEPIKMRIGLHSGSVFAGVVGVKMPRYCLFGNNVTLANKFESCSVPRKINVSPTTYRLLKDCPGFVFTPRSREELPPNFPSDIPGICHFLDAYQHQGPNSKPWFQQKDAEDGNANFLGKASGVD
T1 sequence (P20595 1-619): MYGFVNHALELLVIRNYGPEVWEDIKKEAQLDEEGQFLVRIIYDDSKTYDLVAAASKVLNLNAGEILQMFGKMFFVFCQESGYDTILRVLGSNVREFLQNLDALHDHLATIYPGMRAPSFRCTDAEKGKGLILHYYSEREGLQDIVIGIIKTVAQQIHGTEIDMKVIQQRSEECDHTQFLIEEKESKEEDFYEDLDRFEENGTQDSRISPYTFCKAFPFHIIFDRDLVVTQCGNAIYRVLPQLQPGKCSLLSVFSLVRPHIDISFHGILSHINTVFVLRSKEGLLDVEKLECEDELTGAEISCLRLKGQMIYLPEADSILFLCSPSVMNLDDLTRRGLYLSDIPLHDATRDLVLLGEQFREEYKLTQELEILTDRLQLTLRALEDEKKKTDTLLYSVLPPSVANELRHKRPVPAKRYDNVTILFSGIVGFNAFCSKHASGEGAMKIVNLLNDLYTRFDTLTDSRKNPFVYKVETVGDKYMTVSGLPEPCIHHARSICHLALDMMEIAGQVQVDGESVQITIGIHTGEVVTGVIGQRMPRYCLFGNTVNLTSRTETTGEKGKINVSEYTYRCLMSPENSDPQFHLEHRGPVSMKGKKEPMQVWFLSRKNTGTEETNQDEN
As to the kind of experiment: Action on recombinant guanylate cyclase reporter cell line. The class given is cell-based. The settings on record: in some cases mean values from individual determinations. In a few lines:
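Rat recombinant guanylate cyclase reporter cell line measures cellular activity. Value reported as MEC (minimal effective concentration), sometimes averaged over individual determinations.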
In the case of `Cc1cc(OCc2c(F)cccc2F)c2nc(C)c(C(=O)NCC(N)C#N)n2c1` (single isomer, unassigned; enantiomer a) [Example 401, ent-N-(2-amino-2-cyanoethyl)-8-[(2,6-difluorobenzyl)oxy]-2,6-dimethylimidazo[1,2-a]pyridine-3-carboxamide (Enantiomer A)], the “MEC (minimal effective concentration)” value came to 1.00 µM. The same measure for `Cc1nc2c(OCc3c(F)cccc3F)cccn2c1C(=O)NC(CN)CC(F)(F)F` (single isomer, unassigned; enantiomer b) [Example 3, ent-N-(1-Amino-4,4,4-trifluorobutan-2-yl)-8-[(2,6-difluorobenzyl)oxy]-2-methylimidazo[1,2-a]-pyridine-3-carboxamide (Enantiomer B)]: 0.30 µM. As to `Cc1nc2c(OCc3c(F)cccc3F)cccn2c1C(=O)NC(CN)CCCC(F)(F)F` (single isomer, unassigned; enantiomer b) [Example 6, ent-N-(1-Amino-6,6,6-trifluorohexan-2-yl)-8-[(2,6-difluorobenzyl)oxy]-2-methylimidazo[1,2-a]-pyridine-3-carboxamide (Enantiomer B)], the “MEC (minimal effective concentration)” value was 0.23 µM. For the compound `Cc1nc2c(OCc3c(F)cccc3F)cccn2c1C(=O)NC(CN)c1ccc(Cl)cc1` (single isomer, unassigned; enantiomer b) [Example 15, ent-N-[2-Amino-1-(4-chlorophenyl)ethyl]-8-[(2,6-difluorobenzyl)oxy]-2-methylimidazo[1,2-a]-pyridine-3-carboxamide (Enantiomer B)], the “MEC (minimal effective concentration)” value turned out to be 0.53 µM. `Cc1nc2c(OCc3c(F)cccc3F)cccn2c1C(=O)NC(CN)c1ccccc1` (single isomer, unassigned; enantiomer b) [Example 18, ent-N-(2-Amino-1-phenylethyl)-8-[(2,6-difluorobenzyl)oxy]-2-methylimidazo[1,2-a]pyridine-3-carboxamide (Enantiomer B)]: the “MEC (minimal effective concentration)” value was found to be 0.55 µM. In the case of `CCCC(C)(N)CNC(=O)c1c(C)nc2c(OCc3c(F)cccc3F)cc(Cl)cn12` (single isomer, unassigned; enantiomer b) [Example 246, ent-N-(2-Amino-2-methylpentyl)-6-chloro-8-[(2,6-difluorobenzyl)oxy]-2-methylimidazo[1,2-a]-pyridine-3-carboxamide (Enantiomer B)], the “MEC (minimal effective concentration)” value came out at 0.30 µM.

As to `COCC(N)CNC(=O)c1c(C)nc2c(OCc3c(F)cccc3F)cccn12` (single isomer, unassigned; enantiomer b) [Example 248, ent-N-(2-Amino-3-methoxypropyl)-8-[(2,6-difluorobenzyl)oxy]-2-methylimidazo[1,2-a]pyridine-3-carboxamide (Enantiomer B)], the “MEC (minimal effective concentration)” value turned out to be 1.00 µM. In the case of `Cc1cc(OC(C)c2c(F)cccc2F)c2nc(C)c(C(=O)NCC(C)(C)N)n2c1` (single isomer, unassigned; enantiomer b) [Example 256, ent-N-(2-Amino-2-methylpropyl)-8-[1-(2,6-difluorophenyl)ethoxy]-2,6-dimethylimidazo[1,2-a]-pyridine-3-carboxamide (Enantiomer B)], the “MEC (minimal effective concentration)” value was 3.00 µM. The same measure for `Cc1nc2c(OCc3c(F)cccc3F)cccn2c1C(=O)NCC(C)(N)CCOCc1ccccc1` (single isomer, unassigned; enantiomer b) [Example 267, ent-N-[2-Amino-4-(benzyloxy)-2-methylbutyl]-8-[(2,6-difluorobenzyl)oxy]-2-methylimidazo[1,2-a]pyridine-3-carboxamide (Enantiomer B)]: 0.10 µM; for `Cc1cc(OCc2c(F)cccc2F)c2nc(C)c(C(=O)NCC(C)(N)CO)n2c1` (single isomer, unassigned; enantiomer b) [Example 269, ent-N-(2-Amino-3-hydroxy-2-methylpropyl)-8-[(2,6-difluorobenzyl)oxy]-2,6-dimethylimidazo-[1,2-a]pyridine-3-carboxamide (Enantiomer B)]: 0.65 µM.

For the compound `CCCC(C)(N)CNC(=O)c1c(C)nc2c(OCc3c(F)cccc3F)cc(OC)cn12` (single isomer, unassigned; enantiomer b) [Example 278, ent-N-(2-amino-2-methylpentyl)-8-[(2,6-difluorobenzyl)oxy]-6-methoxy-2-methylimidazo[1,2-a]pyridine-3-carboxamide (Enantiomer B)], the “MEC (minimal effective concentration)” value is 0.3 µM. Take `CCCC(C)(N)CNC(=O)c1c(C)nc2c(OCc3c(F)cccc3F)cc(N3CCOCC3)cn12` (single isomer, unassigned; enantiomer b) [Example 280, ent-N-(2-amino-2-methylpentyl)-8-[(2,6-difluorobenzyl)oxy]-2-methyl-6-(morpholin-4-yl)imidazo[1,2-a]pyridine-3-carboxamide (Enantiomer B)]: the “MEC (minimal effective concentration)” value came to 0.65 µM. For `CCCC(C)(N)CNC(=O)c1c(C)nc2c(OCc3c(F)cccc3F)cc(C(F)F)cn12` (single isomer, unassigned; enantiomer b) [Example 290, ent-N-(2-amino-2-methylpentyl)-8-[(2,6-difluorobenzyl)oxy]-6-(difluoromethyl)-2-methyl-imidazo[1,2-a]pyridine-3-carboxamide (Enantiomer B)] the value was 0.3 µM; for `Cc1cc(OCc2c(F)cccc2F)c2nc(C)c(C(=O)NC3CCC3N)n2c1` (single isomer, unassigned; enantiomer b) [Example 329, ent-N-(2-aminocyclobutyl)-8-[(2,6-difluorobenzyl)oxy]-2,6-dimethylimidazo[1,2-a]pyridine-3-carboxamide (Enantiomer B)], 0.30 µM.

With `Cc1cc(OCc2c(F)cccc2F)c2nc(C)c(C(=O)NC3CCC3(C)N)n2c1` (single isomer, unassigned; enantiomer b) [Example 333, ent-N-[2-amino-2-methylcyclobutyl]-8-[(2,6-difluorobenzyl)oxy]-2,6-dimethylimidazo[1,2-a]pyridine-3-carboxamide (Enantiomer B)], the “MEC (minimal effective concentration)” value is 1.00 µM. For `Cc1cc(OCc2c(F)cccc2F)c2nc(C)c(C(=O)NC3(C)CCC3(C)N)n2c1` (single isomer, unassigned; enantiomer b) [Example 337, ent-N-[(2-amino-1,2-dimethylcyclobutyl]-8-[(2,6-difluorobenzyl)oxy]-2,6-dimethylimidazo[1,2-a]pyridine-3-carboxamide (Enantiomer B)] the value was 0.55 µM. For `Cc1cc(OCc2c(F)cccc2F)c2nc(C)c(C(=O)NCC(N)C#N)n2c1` (single isomer, unassigned; enantiomer b) [Example 402, ent-N-(2-amino-2-cyanoethyl)-8-[(2,6-difluorobenzyl)oxy]-2,6-dimethylimidazo[1,2-a]pyridine-3-carboxamide (Enantiomer B)], the “MEC (minimal effective concentration)” value was determined as 0.30 µM. For `Cc1nc2c(OCc3c(F)cccc3F)cc(Cl)cn2c1C(=O)NC1CNCc2ccccc21` (single isomer, unassigned; ent-6) [Example 107, ent-6-chloro-8-[(2,6-difluorobenzyl)oxy]-2-methyl-N-(1,2,3,4-tetrahydroisoquinolin-4-yl)imidazo[1,2-a]pyridine-3-carboxamide] the value was 0.30 µM.

Source of the values: patent US20150274719A1, “AMINO-SUBSTITUTED IMIDAZO[1,2-A]PYRIDINECARBOXAMIDES AND THEIR USE” (BAYER PHARMA AKTIENGESELLSCHAFT, priority 2012, published 2015).
